Values quoted from earlier work, collected in patent publication US20060210485A1, “Pharmaceutical formulations” (priority 2003, published 2006).
Structures can show the parent of a compound that is named as a salt.

Conditions: solid tablets with a lactose excipient; adducts postulated via the Maillard reaction

CNCCC(Oc1ccc(C(F)(F)F)cc1)c1ccccc1 (stereo not shown) [fluoxetine hydrochloride]
chemical stability in presence of lactose: undergoes degradation
